Assay: Preformulation stability and solubility tests of calcitriol in two excipients
Format: physicochemical
Settings: 800 ppm; 4° C., ambient temperature and 40° C.; 1 month
Experimental: Preliminary preformulation studies were carried out to direct the choice of the lipid core (oily internal phase) of the lipid vesicles. The results of tests of stability and of solubility of calcitriol in two excipients are presented in the graphs below. The objective of these solubility and stability studies on calcitriol is to find the oil which will make possible good solubility of calcitriol for the proposals for internal phase used in this concept and good stability of calcitriol in this excipient. Calcitriol is stable at 800 ppm in Miglyol 812 (caprylic/capric triglyceride: MTC) and tocopherol acetate at the three temperatures (4° C., ambient temperature and 40° C.) for 1 month.

## C=C1/C(=C\C=C2/CCC[C@]3(C)[C@@H]([C@H](C)CCCC(C)(C)O)CC[C@@H]23)C[C@@H](O)C[C@@H]1O [Calcitriol, calcitriol]
  Stability of calcitriol in Miglyol 812 (caprylic/capric triglyceride): stable
  Stability of calcitriol in tocopherol acetate: stable

— patent publication US20100221350A1, “DERMATOLOGICAL COMPOSITIONS COMPRISING VITAMIN D LIPID VESICLES” (GALDERMA S.A., priority 2007, published 2010)
